From BindingDB's records for doi:10.1021/jm00098a005 (Pfizer, 1992)

Experiments:
[1] = Compound was evaluated for binding affinity towards 5-hydroxytryptamine 1D receptor in bovine caudate using [3H]- serotonin as radioligand
[2] = Compound was evaluated for binding affinity towards 5-hydroxytryptamine 1C receptor in pig choroid plexus using [3H]mesulergine as radioligand

| Compound | IC50 [1] | IC50 [2] |
| --- | --- | --- |
| CN(C)CCc1c[nH]c2ccc3c(c12)CCCO3 | 220 nM | 150 nM |
| Cn1cc(CCN)c2c3c(ccc21)OCCC3 | 4200 nM | 100 nM |
| CN(C)CCc1cn(C)c2ccc3c(c12)CCCO3 | 9300 nM | 100 nM |
| NCCc1c[nH]c2ccc3c(c12)CCCO3 | 110 nM | 41 nM |
| CN(C)CCc1c[nH]c2cc3c(cc12)OCCC3 |  | 2500 nM |
